For the experiment, the target named is C5aR (Homo sapiens (Human), UniProt P21730). The experiment is described as follows: Chemotaxis assay using U937 cells (C5aR mediated migration). It counts as cell-based. The note with it: read-out: Mig IC50. In a few lines: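 Migration toward 0.03 nM C5a, mixed with varying compound in the lower chamber (HBSS with 1% FBS), was measured over 1.5 h at 37° C through 5 μm filters. Upper chamber held 100,000 U937 cells treated overnight with 0.5 mM cAMP; migrated cells quantified by counts or CyQuant for IC50, SDF-1α as specificity control.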
Chain of C5aR (P21730 whole entry): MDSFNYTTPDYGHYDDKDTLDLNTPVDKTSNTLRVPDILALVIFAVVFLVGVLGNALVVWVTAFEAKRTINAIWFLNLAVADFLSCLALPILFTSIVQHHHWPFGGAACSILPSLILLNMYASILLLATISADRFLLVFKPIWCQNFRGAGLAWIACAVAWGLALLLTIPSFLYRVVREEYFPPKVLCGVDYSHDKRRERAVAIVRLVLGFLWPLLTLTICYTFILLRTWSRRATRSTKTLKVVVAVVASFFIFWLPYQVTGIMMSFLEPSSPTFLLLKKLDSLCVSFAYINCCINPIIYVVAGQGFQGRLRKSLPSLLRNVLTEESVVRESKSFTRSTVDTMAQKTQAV
What is called IC50 is the concentration at which inhibition is half-maximal. For `Cc1cccc(OCC(C)C)c1-n1nc2c(c1-c1ccc(NC(N)=O)cc1)CN(CC(C)C(F)(F)F)CC2` (stereo not drawn) [Example 1.391], the IC50 was in the range of 5 to 50 nM.

As for `Cc1cccc(OCC(C)C)c1-n1nc2c(c1-c1ccc(NC(N)=O)cc1)CN(C(=O)C(C)(C)C)CC2` [Example 1.436], the IC50 was 50 to 500 nM.

As for `COc1cccc(C)c1-n1nc2c(c1-c1ccc(N)cc1)CN(c1ccccc1C(C)(C)C)CC2` [Example 1.459], the IC50 was in the range of 5 to 50 nM.

In the case of `Cc1cccc(OCC(C)C)c1-n1nc2c(c1-c1ccc(NC(N)=O)c(F)c1)CN(CC(C)C)CC2` [Example 1.273], the IC50 fell in the range of 5 to 50 nM.

With `CCc1cccc(CC)c1-n1nc2c(c1-c1ccc(NC(N)=O)c(F)c1)CN(c1ncc(Cl)cc1Cl)CC2` [Example 1.227], the IC50 is not above 5 nM.

As to `Cc1cccc(OCC(C)C)c1-n1nc2c(c1-c1ccc(NC(N)=O)cc1)CN(c1ccc(C(F)(F)F)cc1C(F)(F)F)CC2` [Example 1.343], the half-maximal inhibitory concentration (IC50) was not above 5 nM.

With `Cc1cccc(OCC(C)C)c1-n1nc2c(c1-c1ccc(NC(N)=O)cc1)CN(C1CCCC1)CC2` [Example 1.410], the IC50 is 50 to 500 nM.

For `Cc1cccc(OCC(C)C)c1-n1nc2c(c1-c1ccc(NC(N)=O)c(F)c1)CN(CC(C)(C)C)CC2` [Example 1.274], the IC50 is not above 5 nM.

Take `CCc1cccc(CC)c1-n1nc2c(c1-c1ccc(NC(N)=O)c(F)c1)CN(C(C)C1CCCC1)CC2` (stereo not drawn) [Example 1.216]: the IC50 was 5 to 50 nM.

In the case of `Cc1cccc(OCC(C)C)c1-n1nc2c(c1-c1cc(F)c(NC(N)=O)cc1F)CN(c1ncc(F)cc1Cl)CC2` [Example 1.169], the IC50 was not above 5 nM.

For `Cc1cccc(C)c1-n1nc2c(c1-c1cc(F)c(NC(N)=O)cc1F)CN(c1ccc(C(F)(F)F)cc1F)CC2` [Example 1.122], the IC50 was not above 5 nM.

On to `Cc1cccc(OCC(C)C)c1-n1nc2c(c1-c1ccc(NC(N)=O)c(F)c1)CN(C(C)C1CCCC1)CC2` (stereo not drawn) [Example 1.254], for which the IC50 was not above 5 nM.

Take `Cc1cccc(OCC(C)C)c1-n1nc2c(c1-c1cc(F)c(NC(N)=O)cc1F)CN(c1ncc(C(C)C)cn1)CC2` [Example 1.166]: the IC50 was not above 5 nM.

With `CCc1cccc(CC)c1-n1nc2c(c1-c1cc(F)c(NC(N)=O)cc1F)CN(Cc1cccn(C)c1=O)CC2` [Example 1.041], the IC50 is more than 500 nM.

Regarding `Cc1cccc(OC(C)C)c1-n1nc2c(c1-c1ccc(NC(N)=O)cc1)CN(c1ccccc1C(C)C)CC2` [Example 1.460], the IC50 was not above 5 nM.

In the case of `Cc1cccc(OCC(C)C)c1-n1nc2c(c1-c1cc(F)c(NC(N)=O)cc1F)CN(c1ncnc3cc[nH]c13)CC2` [Example 1.140], the IC50 is more than 500 nM.

As to `CC[C@H](c1ccccc1)N1CCc2nn(-c3c(C)cccc3C)c(-c3cc(F)c(NC(N)=O)cc3F)c2C1` [Example 1.100], the IC50 is not above 5 nM.

Regarding `Cc1cc(C(N)=O)ccc1-c1c2c(nn1-c1c(C)cccc1C)CCN(c1ncc(Cl)cc1Cl)C2` [Example 1.108], the IC50 is more than 500 nM.

Regarding `Cc1cccc(OCC(C)C)c1-n1nc2c(c1-c1ccc(NC(N)=O)cc1)CN(Cc1ccc(Cl)cc1F)CC2` [Example 1.323], the IC50 is not above 5 nM.

Turning to `Cc1cccc(OCC(C)C)c1-n1nc2c(c1-c1ccc(NC(N)=O)cc1)CN(Cc1cc(C(F)(F)F)ccc1C(F)(F)F)CC2` [Example 1.335], the IC50 was not above 5 nM.

As for `COc1cccc(C)c1-n1nc2c(c1-c1ccc(NC(N)=O)cc1)CN(c1cc(C(C)(C)C)ccc1C)CC2` [Example 1.462], the IC50 fell in the range of 5 to 50 nM.

With `CCC(CC)N1CCc2nn(-c3c(C)cccc3OCC(C)C)c(-c3ccc(NC(N)=O)c(F)c3)c2C1` [Example 1.255], the IC50 was not above 5 nM.

Consider `Cc1cccc(OCC(C)C)c1-n1nc2c(c1-c1ccc(NC(N)=O)cc1)CN(C(=O)CCc1ccccc1)CC2` [Example 1.429], for which the IC50 was 50 to 500 nM.

With `Cc1cccc(OCC(C)C)c1-n1nc2c(c1-c1cc(F)c(NC(N)=O)cc1F)CN(c1ncc(C(C)C)cc1F)CC2` [Example 1.202], the IC50 was not above 5 nM.

As to `Cc1cccc(OCC(C)C)c1-n1nc2c(c1-c1ccc(NC(N)=O)c(F)c1)CN(C(=O)C1CCCC1)CC2` [Example 1.238], the concentration for half-maximal inhibition (IC50) was 5 to 50 nM.

In the case of `Cc1ccc(C(C)(C)C)cc1N1CCc2nn(-c3c(C)cccc3OCC(C)C)c(-c3ccc(N)cc3)c2C1` [Example 1.458], the IC50 lay in the range of 5 to 50 nM.

For `Cc1cccc(OCC(C)C)c1-n1nc2c(c1-c1ccc(NC(N)=O)cc1)CN(Cc1ccc(C(F)(F)F)cc1Cl)CC2` [Example 1.315], the IC50 was not above 5 nM.

In the case of `Cc1cccc(OCC(C)C)c1-n1nc2c(c1-c1cc(F)c(NC(N)=O)cc1F)CN(c1ncc(Cl)cc1F)CC2` [Example 1.173], the IC50 is not above 5 nM.

On to `CCOc1cccc(C)c1-n1nc2c(c1-c1ccc(N)cc1)CN(c1ccccc1C(C)C)CC2` [Example 1.479], for which the IC50 was in the range of 50 to 500 nM.

For `COc1cccc(C)c1-n1nc2c(c1-c1ccc(NC(C)C)cc1)CN(c1ccccc1C(C)C)CC2` [Example 1.485], the IC50 lay in the range of 50 to 500 nM.

`Cc1cccc(OCC(C)C)c1-n1nc2c(c1-c1cc(F)c(NC(N)=O)cc1F)CN(c1ccc(Cl)cc1Cl)CC2` [Example 1.194]: the IC50 is not above 5 nM.

Regarding `COc1cccc(F)c1-n1nc2c(c1-c1ccc(NC(N)=O)cc1)CN(c1cc(C(C)(C)C)ccc1C)CC2` [Example 1.451], the IC50 was 50 to 500 nM.

Take `CCc1cccc(CC)c1-n1nc2c(c1-c1cc(F)c(NC(N)=O)cc1F)CN(Cc1ccccc1C(F)(F)F)CC2` [Example 1.067]: the IC50 was not above 5 nM.

For the compound `Cc1cccc(OCC(C)C)c1-n1nc2c(c1-c1cc(F)c(NC(N)=O)cc1F)CN(c1ccnc(C(F)(F)F)n1)CC2` [Example 1.137], the IC50 is not above 5 nM.

As for `Cc1cc(-c2c3c(nn2-c2c(C)cccc2OCC(C)C)CCN(c2ncc(C(F)(F)F)cc2F)C3)cc(C)c1NC(N)=O` [Example 1.266], the half-maximal inhibitory concentration (IC50) is more than 500 nM.

For the compound `CCc1cccc(CC)c1-n1nc2c(c1-c1ccc(NC(N)=O)cc1)CN(CC(C)(C)C(F)(F)F)CC2` [Example 1.285], the IC50 lay within 5 to 50 nM.

`CCc1cccc(CC)c1-n1nc2c(c1-c1cc(F)c(NC(N)=O)cc1F)CN(C(C)(C)c1ccc(OC)cc1)CC2` [Example 1.157]: the IC50 was not above 5 nM.

Turning to `Cc1cccc(OCC(C)C)c1-n1nc2c(c1-c1cc(F)c(NC(N)=O)cc1F)CN(c1ncc(C3CC3)cc1F)CC2` [Example 1.172], the IC50 is not above 5 nM.

As for `Cc1cccc(C)c1-n1nc2c(c1-c1cc(F)c(NC(N)=O)cc1F)CN(c1ncc(C(C)C)cc1F)CC2` [Example 1.165], the IC50 was not above 5 nM.

For `Cc1cccc(OCC(C)C)c1-n1nc2c(c1-c1ccc(NC(N)=O)cc1)CN(Cc1ccc(Cl)cc1C(F)(F)F)CC2` [Example 1.327], the IC50 is not above 5 nM.

With `CCc1cccc(CC)c1-n1nc2c(c1-c1cc(F)c(NC(N)=O)cc1F)CN(C(C)(C)c1ccccc1)CC2` [Example 1.200], the IC50 was not above 5 nM.

As for `CCc1cccc(CC)c1-n1nc2c(c1-c1cc(F)c(NC(N)=O)cc1F)CN(C(=O)C(C)C)C(C)(C)C2` [Example 1.032], the IC50 is not above 5 nM.

For the compound `Cc1cccc(OCC(C)C)c1-n1nc2c(c1-c1ccc(NC(N)=O)c(F)c1)CN(CC1CCCC1)CC2` [Example 1.272], the IC50 is not above 5 nM.

As to `Cc1cnc(N2CCc3nn(-c4c(C)cccc4OCC(C)C)c(-c4cc(F)c(NC(N)=O)cc4F)c3C2)nc1` [Example 1.158], the IC50 is not above 5 nM.

In the case of `CC(C)COc1cccc(F)c1-n1nc2c(c1-c1cc(F)c(NC(N)=O)cc1F)CN(c1ncc(C(F)(F)F)cc1F)CC2` [Example 1.203], the IC50 is not above 5 nM.

Turning to `Cc1cccc(OCC(C)C)c1-n1nc2c(c1-c1ccc(NC(N)=O)cc1F)CN(c1ncc(C(F)(F)F)cc1F)CC2` [Example 1.270], the IC50 is not above 5 nM.

As to `Cc1cccc(OCC(C)C)c1-n1nc2c(c1-c1ccc(NC(N)=O)c(F)c1)CN([C@@H](C)C(C)C)CC2` [Example 1.257], the concentration for half-maximal inhibition (IC50) is not above 5 nM.

`CCc1cccc(CC)c1-n1nc2c(c1-c1cc(F)c(NC(N)=O)cc1F)CN(Cc1ccc(C(F)(F)F)cc1C(F)(F)F)C(C)(C)C2` [Example 1.059]: the 50% inhibitory concentration (IC50) is not above 5 nM.

Regarding `CCc1cccc(CC)c1-n1nc2c(c1-c1cc(F)c(NC(N)=O)cc1F)CN(Cc1ccc(F)cc1C(F)(F)F)CC2` [Example 1.044], the IC50 was not above 5 nM.

With `CCc1cccc(CC)c1-n1nc2c(c1-c1cc(F)c(NC(N)=O)cc1F)CN(Cc1ccc(Cl)cc1C(F)(F)F)[C@H](C)C2` [Example 1.021], the IC50 is not above 5 nM.

Take `CCc1cccc(CC)c1-n1nc2c(c1-c1cc(F)c(NC(N)=O)cc1F)CN(Cc1cc(C(F)(F)F)ccc1Cl)CC2` [Example 1.038]: the IC50 is not above 5 nM.

`COc1ccc(-c2c3c(nn2-c2c(C)cccc2C)CCN(c2cc(C(C)(C)C)ccc2C)C3)cc1` [Example 1.472]: the IC50 was in the range of 50 to 500 nM.

In the case of `Cc1cccc(OCC(C)C)c1-n1nc2c(c1-c1ccc(NC(N)=O)c(Cl)c1)CN(c1ncc(C(F)(F)F)cc1F)CC2` [Example 1.275], the concentration for half-maximal inhibition (IC50) was not above 5 nM.

As to `Cc1cccc(OCC(C)C)c1-n1nc2c(c1-c1cc(F)c(NC(N)=O)cc1F)CN(c1ncc(Cl)cn1)CC2` [Example 1.175], the IC50 is not above 5 nM.

Regarding `Cc1cccc(C)c1-n1nc2c(c1-c1cc(F)c(NC(N)=O)cc1F)CN(Cc1ccc(C(F)(F)F)cc1C(F)(F)F)C(C)(C)C2` [Example 1.033], the IC50 is not above 5 nM.

Consider `COc1cccc(C)c1-n1nc2c(c1-c1ccc(N)cc1)CN(c1cc(C(C)(C)C)ccc1C)CC2` [Example 1.469], for which the 50% inhibitory concentration (IC50) was 50 to 500 nM.

As to `CC[C@@H](c1ccccc1)N1CCc2nn(-c3c(C)cccc3C)c(-c3ccc(NC(N)=O)cc3F)c2C1` [Example 1.081], the half-inhibitory concentration (IC50) lay in the range of 5 to 50 nM.

For `COc1cccc(C)c1-n1nc2c(c1-c1ccc(NC(N)=O)cc1)CN(c1ccccc1C)CC2` [Example 1.484], the IC50 lay within 50 to 500 nM.

Turning to `COc1cccc(C)c1-n1nc2c(c1-c1ccc(NC(=O)NC(C)(C)C)cc1)CN(c1ccccc1C)CC2` [Example 1.488], the IC50 is more than 500 nM.

As to `Cc1cnc(N2CCc3nn(-c4c(C)cccc4OCC(C)C)c(-c4ccc(NC(N)=O)c(F)c4)c3C2)c(C(F)(F)F)c1` [Example 1.240], the IC50 was not above 5 nM.

Source of the values: patent US11478460B2, “Diaryl substituted 6,5-fused ring compounds as C5aR inhibitors” (CHEMOCENTRYX, INC., priority 2017, dated 2022).
